Assay results from paper PMC10545747, “Development of cyclopeptide inhibitors of cGAS targeting protein-DNA interaction and phase separation” (Nature Communications, 2023).
Where “and” joins values, the source holds several entries; their conditions need not be identical. Equal entries are not always repeated. Square brackets hold non-standard residues; d marks the D form. Peptide text beside a SMILES is read from it.

Target: T1, recombinant human cGAS enzyme (hcGAS-ΔN, residues 147–522) (Homo sapiens, UniProt Q8N884)
T1 construct: N-terminally truncated human cGAS (hcGAS-ΔN, residues 147–522); 6xHis-SUMO (N, cleaved yes); made in house; host or cells: Escherichia coli BL21 (DE3)
T1 sequence (Q8N884 147-522, stated change not applied): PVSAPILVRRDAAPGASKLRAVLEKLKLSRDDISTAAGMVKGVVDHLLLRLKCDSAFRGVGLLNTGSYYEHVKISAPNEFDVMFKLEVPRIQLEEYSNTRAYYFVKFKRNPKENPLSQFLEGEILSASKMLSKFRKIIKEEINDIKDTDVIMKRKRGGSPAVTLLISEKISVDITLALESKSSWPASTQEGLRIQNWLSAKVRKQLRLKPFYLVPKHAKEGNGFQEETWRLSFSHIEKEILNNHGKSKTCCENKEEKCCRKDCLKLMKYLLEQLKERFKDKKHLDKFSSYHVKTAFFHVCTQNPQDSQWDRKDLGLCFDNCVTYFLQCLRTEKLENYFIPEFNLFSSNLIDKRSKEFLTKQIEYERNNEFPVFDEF
Assay: RNA-based fluorescent biosensor assay of cGAS activity (2',3'-cGAMP formation), in vitro screening
Assay type: biochemical
Conditions: for Remaining activity (%), Fig. 1a source data / remaining activity at 20 µM: 20 μM, replicate values; for remaining activity at 20 µM: read-out: Remaining activity (%), Fig. 1a source data; for inhibition at 20 µM: read-out: Inhibition %
Outline: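 In 40 mM Tris-HCl pH 7.5, 100 mM NaCl, 10 mM MgCl2, ISD (0.5 μM) started the reaction with hcGAS-ΔN (1.5 μM), ATP (1 mM) and GTP (1 mM). Incubation was 2 h at 37 °C, with compounds screened at 20 μM. 2',3'-cGAMP formed was quantified with an RNA-based fluorescent biosensor.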

[1] = peptides screened at 20 μM, Supplementary Table 1 / Fig. S5b

Compound: CC(C)C[C@@H]1NC(=O)[C@H](CCCNC(=N)N)NC(=O)[C@H]([C@@H](C)O)NC(=O)[C@@H]2CCCN2C(=O)[C@@H](Cc2ccccc2)NC(=O)[C@H](CC(C)C)NC(=O)[C@H](CCCNC(=N)N)NC(=O)[C@H](C(C)C)NC(=O)[C@@H]2CCCN2C(=O)[C@@H](Cc2ccccc2)NC1=O [XQ42, Cyclo (LfPTRLfPVR)] (cyclo(L[dF]PTRL[dF]PVR))
- Remaining activity (%), Fig. 1a source data: 87.273% and 87.6684%
- remaining activity at 20 µM: 86%
- inhibition at 20 µM [1]: 13%

Compound: CC(C)C[C@@H]1NC(=O)[C@H](CCCNC(=N)N)NC(=O)[C@H]([C@@H](C)O)NC(=O)[C@@H]2CCCN2C(=O)[C@@H](C(C)C)NC(=O)[C@H](CC(C)C)NC(=O)[C@H](CCCNC(=N)N)NC(=O)[C@H]([C@@H](C)O)NC(=O)[C@@H]2CCCN2C(=O)[C@@H](Cc2ccccc2)NC1=O [XQ31, Cyclo (LvPTRLfPTR)] (cyclo(L[dF]PTRL[dV]PTR))
- Remaining activity (%), Fig. 1a source data: 70.1575% and 70.5622%
- remaining activity at 20 µM: 69.4%
- inhibition at 20 µM [1]: 30%

Compound: CC(C)C[C@@H]1NC(=O)[C@H](CCCNC(=N)N)NC(=O)[C@H]([C@@H](C)O)NC(=O)[C@@H]2CCCN2C(=O)[C@@H](Cc2ccccc2)NC(=O)[C@H](C)NC(=O)[C@H](CCCNC(=N)N)NC(=O)[C@H]([C@@H](C)O)NC(=O)[C@@H]2CCCN2C(=O)[C@@H](Cc2ccccc2)NC1=O [XQ37, Cyclo (AfPTRLfPTR)] (cyclo(A[dF]PTRL[dF]PTR))
- Remaining activity (%), Fig. 1a source data: 81.1407% and 81.3464%
- remaining activity at 20 µM: 81%
- inhibition at 20 µM [1]: 18%

Compound: CC(C)C[C@@H]1NC(=O)[C@H](CCCNC(=N)N)NC(=O)[C@H]([C@@H](C)O)NC(=O)[C@@H]2CCCN2C(=O)[C@@H](Cc2ccccc2)NC(=O)[C@H](CC(C)C)NC(=O)[C@H](CCCNC(=N)N)NC(=O)[C@H](C)NC(=O)[C@@H]2CCCN2C(=O)[C@@H](Cc2ccccc2)NC1=O [XQ36, Cyclo (LfPARLfPTR)] (cyclo(ARL[dF]PTRL[dF]P))
- Remaining activity (%), Fig. 1a source data: 88.7067% and 87.9053%
- remaining activity at 20 µM: 89.5%
- inhibition at 20 µM [1]: 11%

Compound: CC(C)C[C@@H]1NC(=O)[C@H](CCCNC(=N)N)NC(=O)[C@H](C(C)C)NC(=O)[C@H](CC(C)C)NC(=O)[C@@H](Cc2ccccc2)NC(=O)[C@H](C)NC(=O)[C@H](CCCNC(=N)N)NC(=O)[C@H](C(C)C)NC(=O)[C@@H]2CCCN2C(=O)[C@@H](Cc2ccccc2)NC1=O [XQ48, Cyclo (AfLVRLfPVR)] (cyclo(A[dF]LVRL[dF]PVR))
- inhibition at 20 µM [1]: 0%

Compound: CC(C)C[C@@H]1NC(=O)[C@H](CCCNC(=N)N)NC(=O)[C@H](C(C)C)NC(=O)[C@@H]2CCCN2C(=O)[C@@H](Cc2ccccc2)NC(=O)[C@H](CC(C)C)NC(=O)[C@H](CCCNC(=N)N)NC(=O)[C@H](C)NC(=O)[C@@H]2CCCN2C(=O)[C@@H](Cc2ccccc2)NC1=O [XQ3, Cyclo (LfPARLfPVR)] (cyclo(ARL[dF]PVRL[dF]P))
- Remaining activity (%), Fig. 1a source data: 67.2186% and 66.8539%
- remaining activity at 20 µM: 67.1%
- inhibition at 20 µM [1]: 33%

Compound: CC(C)[C@@H]1NC(=O)[C@@H]2CCCN2C(=O)[C@@H](Cc2ccccc2)NC(=O)[C@H](C)NC(=O)[C@H](CCCNC(=N)N)NC(=O)[C@H](C(C)C)NC(=O)[C@@H]2CCCN2C(=O)[C@@H](Cc2ccccc2)NC(=O)[C@H](C)NC(=O)[C@H](CCCNC(=N)N)NC1=O [XQ10, Cyclo (AfPVRAfPVR)] (cyclo(A[dF]PVRA[dF]PVR))
- Remaining activity (%), Fig. 1a source data: 103.793% and 104.243%
- remaining activity at 20 µM: 103%
- inhibition at 20 µM [1]: 0%

Compound: Cyclo (Aa(Hyp)TDLfPTR) [XQ85]
- Inhibition % [1]: 0%

Compound: CC(C)C[C@@H]1NC(=O)[C@H](CCCNC(=N)N)NC(=O)[C@H](C(C)C)NC(=O)[C@@H]2CCCN2C(=O)[C@@H](Cc2ccccc2)NC(=O)[C@H](Cc2c[nH]cn2)NC(=O)[C@H](CC(=O)O)NC(=O)[C@H]([C@@H](C)O)NC(=O)[C@@H]2CCCN2C(=O)[C@@H](Cc2ccccc2)NC1=O [XQ67, Cyclo (LfPTDHfPVR)] (cyclo(DH[dF]PVRL[dF]PT))
- inhibition at 20 µM [1]: 0%

Compound: CC(C)C[C@@H]1NC(=O)[C@H](CCCNC(=N)N)NC(=O)[C@H](C)NC(=O)[C@@H]2CCCN2C(=O)[C@@H](Cc2ccccc2)NC(=O)[C@H](C)NC(=O)[C@H](CCCNC(=N)N)NC(=O)[C@H](C)NC(=O)[C@@H]2CCCN2C(=O)[C@@H](Cc2ccccc2)NC1=O [XQ16, Cyclo (AfPARLfPAR)] (cyclo(ARA[dF]PARL[dF]P))
- Remaining activity (%), Fig. 1a source data: 99.1383% and 98.554%
- remaining activity at 20 µM: 98.3%
- inhibition at 20 µM [1]: 1%

Compound: CC(C)C[C@@H]1NC(=O)[C@H](CCCNC(=N)N)NC(=O)[C@H](C(C)C)NC(=O)[C@@H]2CCCN2C(=O)[C@@H](Cc2ccccc2)NC(=O)[C@H](CC(C)C)NC(=O)[C@H](CCCNC(=N)N)NC(=O)[C@H](CC(C)C)NC(=O)[C@@H]2CCCN2C(=O)[C@@H](Cc2ccccc2)NC1=O [XQ54, Cyclo (LfPLRLfPVR)] (cyclo(LRL[dF]PVRL[dF]P))
- inhibition at 20 µM [1]: 0%

Compound: CC(C)C[C@@H]1NC(=O)[C@H](CCCNC(=N)N)NC(=O)[C@H]([C@@H](C)O)NC(=O)[C@@H]2CCCN2C(=O)[C@@H](Cc2ccccc2)NC(=O)[C@H](C(C)C)NC(=O)[C@H](CCCNC(=N)N)NC(=O)[C@H]([C@@H](C)O)NC(=O)[C@@H]2CCCN2C(=O)[C@@H](Cc2ccccc2)NC1=O [XQ30, Cyclo (VfPTRLfPTR)] (cyclo(L[dF]PTRV[dF]PTR))
- Remaining activity (%), Fig. 1a source data: 93.0523% and 92.7481%
- remaining activity at 20 µM: 93.2%
- inhibition at 20 µM [1]: 7%

Compound: CC(C)C[C@@H]1NC(=O)[C@H](CCCNC(=N)N)NC(=O)[C@@H]2CCCN2C(=O)[C@@H](Cc2ccccc2)NC(=O)[C@H](CCCNC(=N)N)NC(=O)[C@H](C(C)C)NC(=O)[C@@H]2CCCN2C(=O)[C@@H](Cc2ccccc2)NC1=O [XQ25, Cyclo (fPVRfPRL)] (cyclo(L[dF]PVR[dF]PR))
- Remaining activity (%), Fig. 1a source data: 114.007% and 112.821%
- remaining activity at 20 µM: 112%
- inhibition at 20 µM [1]: 0%

Compound: CC(C)C[C@@H]1NC(=O)[C@H](CCCNC(=N)N)NC(=O)[C@H](C(C)C)NC(=O)[C@@H]2CCCN2C(=O)[C@@H](Cc2ccccc2)NC(=O)[C@H](C)NC(=O)[C@H](CCCNC(=N)N)NC(=O)[C@H](C(C)C)NC(=O)[C@@H]2CCCN2C(=O)[C@@H](Cc2ccccc2)NC1=O [XQ5, Cyclo (AfPVRLfPVR)] (cyclo(A[dF]PVRL[dF]PVR))
- Remaining activity (%), Fig. 1a source data: 92.0132% and 91.3002%
- remaining activity at 20 µM: 92.3%
- inhibition at 20 µM [1]: 8%

Compound: CC(C)C[C@@H]1NC(=O)[C@H](CCCNC(=N)N)NC(=O)[C@H]([C@@H](C)O)NC(=O)[C@@H]2CCCN2C(=O)[C@@H](Cc2ccccc2)NC(=O)[C@H](C)NC(=O)[C@H](CC(=O)O)NC(=O)[C@H](C)NC(=O)[C@@H]2CCCN2C(=O)[C@@H](Cc2ccccc2)NC1=O [XQ79, Cyclo (LfPADAfPTR)] (cyclo(ADA[dF]PTRL[dF]P))
- inhibition at 20 µM [1]: 0%
